pIC50: −log10 of the molar value. Like-named read-outs stand apart in the source and are kept apart here.
Experiments:
HIF activity = assay: U2OS-HRE-luc cell-based HRE-luciferase reporter assay; details: for inhibition of luciferase activity in U2OS-HRE cells: 1 μM, 1% O2 for 16 hours
Procedure: Cells were harvested and luciferase activity was measured in cell lysates using a standard luminometer. Data was represented as relative light units (RLU) for each condition.
(§1) Tubulin was used as a loading control.

ERK1/2 and AKt/PKB = assay: Western blot of cellular signaling proteins ERK1/2 and AKt/PKB; format: cell-based; details: 1 μM, normoxia or hypoxia
Procedure: (§2) U2OS-HRE-luc described in A, were harvested for western blot analysis. FIG. 1B: Western blots show the effects of HIF-Inhib1 on HIF-1α protein in normoxia or hypoxia. Actin was used as a load control. FIG. 1C: Western blots show HIF-1α, phosphorylated ERK1/2 (ERK1/2-P), and AKT/PKB proteins in the absence (−) and presence of 1 μM HIF-Inhib1 in normoxia (norm) or hypoxia (hyp). Actin was used as a load control. FIG. 1D: Western blots show the effects of HIF-Inhib1 (1 μM) on HIF-2α protein levels. UT (untreated), and DMSO treated (−) controls are indicated;

[1] = tested on: HIF activity and HIF-α expression; assay: HIF activity and HIF-α expression in several cancer cell lines; format: cell-based
[2] = tested on: panel of tumour cell lines; assay: Growth inhibition / toxicity on tumour cell lines; format: cell-based
[3] = tested on: PC3LN5 orthotopic xenograft; assay: PC3LN5 orthotopic mouse xenograft model: tumour growth, metastasis, body weight, PK; format: in vivo, mice
Procedure: (§3) PC3LN5 (10^5 cells) were implanted intraprostatically into mice (Nu) and tumours were allowed to develop for 12 days. Mice received HIF-Inhib1 (75 mg·kg^−1) by IP injection daily for 2.5 weeks. Plasma and tumour samples were taken 24 h after the last dose and analysed by LCMS. Tumours were excised and homogenised, and assessed for PD endpoints HIF-1α and VEGF proteins. Local and distant lymph node metastases were also evaluated.

VEGF [4] = assay: VEGF protein by quantitative ELISA in U2OS-HRE-luc cells; format: cell-based
Procedure: (§4) Cells were harvested and assessed for VEGF and GLUT1 protein levels using a quantitative ELISA or by western blot analysis respectively. In addition, tumour cells were exposed to 0.5 or 2.5 μM HIF-Inhib1 in hypoxia, and tumour cell migration was measured using a 2-dimensional filter-based migration assay.

HIF-2α = assay: Western blot of HIF-2α protein induction in hypoxia; format: cell-based; details: 1 μM
Procedure: as §2

GLUT1 = GLUT1 protein by western blot in U2OS-HRE-luc cells; format: cell-based; details: 0.1-1 μM, hypoxia 16 hours
Procedure: as §4

eIF-2α phosphorylation = assay: Western blot of eIF-2α phosphorylation in U2OS-HRE-luc cells; format: cell-based; details: for eIF-2α phosphorylation (western blot): dose range, normoxia or hypoxia 16 hours
Procedure: Cells were harvested and components of the protein translational machinery were assessed by western blot analysis.
as §1

VEGF [5] = assay: PD endpoint VEGF protein in PC3LN5 orthotopic tumours; format: in vivo, mice; details: 75 mg/kg IP daily
Procedure: as §3

[6] = Tolerability of daily IP dosing in mice; details: mouse, in vivo
[7] = PK by LCMS in PC3LN5 subcutaneous xenograft mice; format: in vivo; details: for concentration at 24 h: intraperitoneal
Procedure: HIF-Inhib1 was administered IP dose of 100 mg·kg^−1 to Nu mice with PC3LN5 xenografts. Mice were killed at 24 h and xenografts removed for PD/PK analysis. Tumour samples were homogenised with 3× (v/w) PBS and 50 μL extracted by addition of 150 μL of methanol. Tumour extracts were analysed by LCMS using reverse-phase Synergi Polar-RP (Phenomenx, 50×2.1 mm) analytical column and positive ion mode ESI+ MRM.

[8] = PC3LN5 orthotopic xenograft, 75 mg/kg IP daily

For `CCC1=C(CC2c3ccc(OC)cc3CCN2S(C)(=O)=O)CC2c3ccccc3CCN2C1` (racemic) [UCL-ONY-004], the “inhibition of luciferase activity in U2OS-HRE cells” value (“inhibition of luciferase activity” for short) (HIF activity) was “inactive”.
For `CCC1=C(CC2NCCc3cc(OC)c(OC)cc32)CC2c3ccccc3CCN2C1` (stereo not drawn) [Compound I], the “expression of key cellular signaling proteins ERK1/2 and AKt/PKB” value (ERK1/2 and AKt/PKB) was “no significant effect”, the “HIF activity and HIF-α expression in response to hypoxia and growth factors” value [1] was “inhibits both HIF activity and HIF-α expression” and the “HIF activity (HRE-luciferase activity, RLU)” value (HIF activity; 0.1-1 μM, hypoxia (1% O2) 16 hours) was “blocks HIF activity”. For the same molecule, the pIC50 (HIF activity; read-out: IC50 for inhibiting HIF activity) was roughly 6.30, the “concentrations inhibiting growth of a panel of tumour cell lines” value [2] was “submicromolar” and the “PK profile in tumours” value ([3]; 75 mg/kg IP daily, 24 h after last dose, LCMS) was “good PK profile”. The Mouse body weight ([3]; 16 days of daily dosing, 75 mg/kg IP) was “not significantly affected”, the “metastasis (local and distant lymph nodes)” value [3, 8] was “significantly blocked” and the tumour growth [3, 8] was “significantly blocked”. For the same molecule, the “induction of HIF target protein VEGF” value (VEGF [4]; 0.1-1 μM, hypoxia 16 hours, ELISA) was “blocks the induction”, the “potency in blocking VEGF induction in hypoxia” value (VEGF [4]; hypoxia) was 250 to 500 nM and the “HIF-2α protein induction in hypoxia” value (HIF-2α) was “blocks HIF-2α protein induction in hypoxia”. The “induction of HIF target protein GLUT1” value (GLUT1) was “blocks the induction”, the “potency in blocking eIF-2α phosphorylation” value (eIF-2α phosphorylation) was 250 to 500 nM and the “eIF-2α phosphorylation (western blot)” value (eIF-2α phosphorylation) was “block eIF-2α phosphorylation”. The “eIF-2α phosphorylation (western blot)” value (eIF-2α phosphorylation; listed as HIF-Inhib1) was “blocked eIF-2α phosphorylation in a dose-dependent manner”, the “VEGF protein in PC3LN5 orthotopic tumours” value (VEGF [5]) was “blocked” and the MTD [6] was no more than 100 mg/kg. The bioavailability in vivo ([7]; 100 mg/kg IP, PC3LN5 xenograft mice) was “Good Bioavailability”, the “pharmacokinetic properties in vivo” value ([7]; mouse, in vivo) was “favourable pharmacokinetic properties” and the concentration at 24 h ([7]; mouse, plasma, 100 mg/kg IP, Nu mice with PC3LN5 xenografts, read-out: Plasma concentrations) was 70 to 300 nM. The concentration at 24 h ([7]; mouse, tumour (PC3LN5 subcutaneous xenograft), 100 mg/kg IP, PC3LN5 subcutaneous xenografts, Nu mice, LCMS, read-out: Tumour concentrations) was 1900 to 35000 nM.
For `CCC1=C(C[C@@H]2NCCc3cc(OC)c(OC)cc32)C[C@@H]2c3ccccc3CCN2C1` [UCL-ONY-002], the “inhibition of luciferase activity” value (HIF activity) was “inactive”.
For `CCC1=C(C[C@@H]2NCCc3cc(OC)c(OC)cc32)C[C@H]2c3ccccc3CCN2C1` [UCL-ONY-003], the “inhibition of luciferase activity” value (HIF activity) was “inactive”.
In the case of `CC[C@H]1CN2CCc3cc(OC)c(OC)cc3[C@@H]2C[C@@H]1C[C@H]1NCCc2cc(OC)c(OC)cc21` [emetine, reference compound], the “HIF activity (relative light units)” value (HIF activity; emetine 0.017 uM, hypoxia (1% O2) 16 hours) was “significantly blocked HIF activity” and the “eIF-2α phosphorylation (western blot)” value (eIF-2α phosphorylation) was “blocks eIF-2α phosphorylation”.

Reference: patent publication US20170157112A1, “HIF INHIBITORS” (UCL BUSINESS PLC, priority 2013, published 2017)
